Experimental data taken from the NIST ThermoML archive (doi:10.1021/je900091b).
± gives the expanded uncertainty stated by the source.

What was measured:
[1] = Liquid
[2] = xn = mol fraction of the nth substance listed; settings: Liquid, x2 = 0

CCCCn1cc[n+](C)c1.F[P-](F)(F)(F)(F)F [1-butyl-3-methylimidazolium hexafluorophosphate]
[1]
Settings | mass density [kg/m3] | viscosity [mPa·s]
283.15 K | 1380.34 ± 1.8 | 802.09 ± 150
288.15 K | 1376.06 ± 1.8 | 552.57 ± 90
293.15 K | 1371.8 ± 1.8 | 389.81 ± 54
298.15 K | 1367.53 ± 1.8 | 282.24 ± 33
303.15 K | 1363.28 ± 1.7 | 209.25 ± 20
308.15 K | 1359.19 ± 1.7 | 159.15 ± 13
313.15 K | 1355.09 ± 1.7 | 123.38 ± 7.6
318.15 K | 1350.98 ± 1.7 | 97.78 ± 4.5
323.15 K | 1346.87 ± 1.7 | 78.77 ± 2.5
328.15 K | 1342.78 ± 1.7 | 61.34 ± 0.93
333.15 K | 1338.7 ± 1.7 | 50.38 ± 0.26
343.15 K | 1330.56 ± 1.6 | 35.25 ± 0.6
353.15 K | 1322.47 ± 1.6 | 25.76 ± 0.45

CCCCn1cc[n+](C)c1.F[P-](F)(F)(F)(F)F [1-butyl-3-methylimidazolium hexafluorophosphate] + C=C(C)C(=O)OC
[2]
Settings | mass density [kg/m3] | viscosity [mPa·s]
283.15 K | 1380.34 ± 1.8 | 802.09 ± 150
288.15 K | 1376.06 ± 1.8 | 552.57 ± 90
293.15 K | 1371.8 ± 1.8 | 389.81 ± 54
298.15 K | 1367.53 ± 1.8 | 282.24 ± 33
303.15 K | 1363.28 ± 1.7 | 209.25 ± 20
308.15 K | 1359.19 ± 1.7 | 159.15 ± 13
313.15 K | 1355.09 ± 1.7 | 123.38 ± 7.6
318.15 K | 1350.98 ± 1.7 | 97.78 ± 4.5
323.15 K | 1346.87 ± 1.7 | 78.77 ± 2.5
328.15 K | 1342.78 ± 1.7 | 61.34 ± 0.93
333.15 K | 1338.7 ± 1.7 | 50.38 ± 0.26
343.15 K | 1330.56 ± 1.6 | 35.25 ± 0.6
353.15 K | 1322.47 ± 1.6 | 25.76 ± 0.45

C=C(C)C(=O)OC [methyl methacrylate]
[1]
Settings | mass density [kg/m3] | viscosity [mPa·s]
283.15 K | 954.802 ± 0.57 | 0.6808 ± 0.018
288.15 K | 949.097 ± 0.58 | 0.6337 ± 0.017
293.15 K | 943.365 ± 0.6 | 0.5899 ± 0.016
298.15 K | 937.615 ± 0.61 | 0.554 ± 0.015
303.15 K | 931.837 ± 0.63 | 0.5248 ± 0.015
308.15 K | 926.032 ± 0.65 | 0.4956 ± 0.014
313.15 K | 920.185 ± 0.66 | 0.4719 ± 0.013
318.15 K | 914.317 ± 0.68 | 0.4497 ± 0.013
323.15 K | 908.405 ± 0.69 | 0.4294 ± 0.013
328.15 K | 902.468 ± 0.71 | 0.41 ± 0.012
333.15 K | 896.479 ± 0.73 | 0.3938 ± 0.012
343.15 K | 884.418 ± 0.76 | 0.3636 ± 0.011
353.15 K | 872.129 ± 0.8 | 0.3398 ± 0.011
